Measured values as given in patent publication US20220096399A1 (Berg LLC, priority 2012, published 2022).
Entries after “also recorded” stand apart in the source; their conditions may differ. Like-named read-outs stand apart in the source and are kept apart here.

What was measured:
[1] = for Maximum tolerated dose (MTD): first interim analysis, highest dose 104.3 mg/kg per dose
Procedure: An interim analysis was performed on the study participants.
(§1) A standard 3×3 phase I dose-escalation design was used with patients (n=31) with advanced solid malignancies.
Pharmacokinetic (PK) information was calculated with serial serum collection data. Tumor response was determined using RECIST 1.1.

[2] = Phase I trial pharmacokinetic analysis (serial serum collection)
Procedure: Pharmacokinetic (PK) information was calculated with serial serum collection data. Tumor response was determined using RECIST 1.1. Clinical benefit (decreased pain, increased quality of life) was assessed by the treating physician.
Pharmacokinetic and pharmacodynamic analyses were performed during the study as well.

[3] = tested on: advanced solid malignancies
Procedure: The study was also performed to examine preliminary efficacy (using RECIST 1.1 criteria), overall clinical benefit, and progression free survival. An interim analysis was performed on the study participants.
as §1
Tumor response was determined using RECIST 1.1.
An exploratory assessment of antitumor activity was undertaken during the study using modified Response Criteria in Solid Tumors (RECIST) v1.1. Tumors were measured at baseline or screening, at the end of Cycle 1 and Cycle 2 treatments, and once every 2 treatment cycles (2 months) thereafter in the absence of clinically rapid progression of disease.

[4] = Example 4, of 39 evaluable subjects
[5] = person, pleomorphic fibrosarcoma, 6 cycles, 22.5 to 58.7 mg/kg/dose

COC1=C(OC)C(=O)C(C/C=C(\C)CC/C=C(\C)CC/C=C(\C)CC/C=C(\C)CC/C=C(\C)CC/C=C(\C)CC/C=C(\C)CC/C=C(\C)CC/C=C(\C)CCC=C(C)C)=C(C)C1=O [CoQ10, Coenzyme Q10]
Maximum tolerated dose (MTD) ([1]; 104.3 mg/kg): has not been identified; also recorded: had not been reached
Maximum tolerated dose (MTD) ([1]; listed as coenzyme Q10, 104.3 mg/kg): no MTD had been reached
Patients reporting headache during first week of treatment (%) ([1]; in vivo): 29.0%
Patients reporting headache during first week of treatment (number) ([1]; in vivo): Nine
Patients with Grade I asymptomatic elevation of INR (%) ([1]; in vivo): 74.1%
Patients with Grade I asymptomatic elevation of INR (number) ([1]; in vivo): 23 patients
Patients with Grade II INR elevation of greater than 2.0 (%) ([1]; in vivo): 45.1%
Patients with Grade II INR elevation of greater than 2.0 (number) ([1]; in vivo): 14 patients
Primary Reason for Discontinuation: Intolerable Toxicity, % ([1]; in vivo): 8%
Subjects with INR greater than 3 (%) ([1]; in vivo): 12.9%
Subjects with INR greater than 3 (number) ([1]; in vivo): four
Subjects with INR greater than 5 (%) ([1]; in vivo): 6%
Subjects with INR greater than 5 (number) ([1]; in vivo): two
Dose-proportionality of AUC ([2]; C31510 formulation, FIG. 5): not strictly proportional to dose
Dependence of t1/2 on dose ([2]; human, IV infusion): little or no dependence on dose
Linearity of pharmacokinetics ([2]; human, IV infusion): linear
Best Response: Unevaluable, % ([3]; 50 subjects): 20%
Best Response: Unknown, % ([3]; 50 subjects): 2%
Primary Reason for Discontinuation: Progressive Disease, % ([3]; 50 subjects): 52%
Best Response: Complete Response, % ([3]; 50 subjects, RECIST v1.1): 0%
Best Response: Partial Response, % ([3]; 50 subjects, RECIST v1.1): 2%
Best Response: Progressive Disease, % ([3]; 50 subjects, RECIST v1.1): 30%
Best Response: Stable Disease, % ([3]; 50 subjects, RECIST v1.1): 46%
Best outcome of partial response (number of subjects) [3, 4]: 2 subjects
Best outcome of progressive disease (number of subjects) [3, 4]: 15 subjects
Best outcome of stable disease (number of subjects) [3, 4]: 22 subjects
Average time on treatment of patients with clinical benefit ([3]; first interim analysis): 16 weeks
Median Progression Free survival ([3]; first interim analysis): 2 months
Patients with a clinical benefit (%) ([3]; first interim analysis, n=31): 61.2%
Patients with a clinical benefit (number) ([3]; first interim analysis, n=31): Nineteen
Average time subjects remained on treatment ([3]; first interim analysis, treatment until clinical progression): 90 days
Progression free survival and/or clinical benefit ([3]; interim data summary): a majority of patients enrolled in this trial had an increased progression free survival and/or clinical benefit
Tumor responses observed ([3]; interim data summary): A partial response and minor response were observed
Evaluable subjects with clinically relevant response by RECIST 1.1 (at least stable disease), number ([3]; of 40 evaluable subjects): 24 subjects
Evaluable subjects with clinically relevant response by RECIST 1.1 (at least stable disease), % ([3]; of 40 evaluable subjects who completed at least one treatment cycle): 60%
Duration of partial response ([3]; one subject with sarcoma of the extremity): at least 6 months
Individual outcome: tumor lesion (CT) ([3]; person, metastatic myxoid liposarcoma, 58.6 mg/kg/dose, four treatment cycles): resolution of their anterior mediastinal lesion
Individual outcome: tumor response ([3]; person, pleomorphic fibrosarcoma with bone metastasis, 6 cycles, 22.5 to 58.7 mg/kg/dose): minor response
Individual outcome: pain [3, 5]: significant improvement in pain
Individual outcome: tumor size (CT) [3, 5]: Tumor shrinkage was also observed
Individual outcome: duration of response ([3]; person, pleomorphic fibrosarcoma, 22.5 to 58.7 mg/kg/dose): over 10 months
